Article PMC7265341, “Quantifying CDK inhibitor selectivity in live cells” (Nature Communications, 2020)
Read-outs that look alike come from different tables or passages of the source.

Legend:
CDK1/Cyclin E1 = CDK1/Cyclin E1 (Homo sapiens, UniProt P06493); test: NanoBRET live-cell target engagement, CDK1-NanoLuc/Cyclin E1 in HEK-293; assay type: binding; details: CDK1/E1, read-out: Inhibition at 10µM (%)
CDK2/Cyclin E1 = CDK2/Cyclin E1 (Homo sapiens, UniProt P24941); test: NanoBRET live-cell target engagement, CDK2-NanoLuc/Cyclin E1 in HEK-293; assay type: binding; details: CDK2/E1, read-out: Inhibition at 10µM (%)
CDK3/Cyclin E1 = CDK3/Cyclin E1 (Homo sapiens, UniProt Q00526); test: NanoBRET live-cell target engagement, CDK3-NanoLuc/Cyclin E1 in HEK-293; assay type: binding; details: read-out: Inhibition at 10µM (%), CDK3/E1
CDK4/Cyclin D1 = CDK4/Cyclin D1 (Homo sapiens, UniProt P11802); test: NanoBRET live-cell target engagement, NanoLuc-CDK4/Cyclin D1 in HEK-293; assay type: binding; details: CDK4/D1, read-out: Inhibition at 10µM (%)
CDK5/CDK5R1 = CDK5/CDK5R1 (Homo sapiens, UniProt Q00535); test: NanoBRET live-cell target engagement, CDK5-NanoLuc/CDK5R1 in HEK-293; assay type: binding; details: CDK5/CDK5R1, read-out: Inhibition at 10µM (%)
CDK6/Cyclin D1 = CDK6/Cyclin D1 (Homo sapiens, UniProt Q00534); test: NanoBRET live-cell target engagement, NanoLuc-CDK6/Cyclin D1 in HEK-293; assay type: binding; details: CDK6/D1, read-out: Inhibition at 10µM (%)
CDK7 = CDK7 (Homo sapiens, UniProt P50613); test: NanoBRET live-cell target engagement, NanoLuc-CDK7 in HEK-293; assay type: binding; details: CDK7, read-out: Inhibition at 10µM (%)
CDK8/Cyclin C = CDK8/Cyclin C (Homo sapiens, UniProt P49336); test: NanoBRET live-cell target engagement, NanoLuc-CDK8/Cyclin C in HEK-293; assay type: binding; details: for IC50: CDK8/C; for inhibition at 10 µM: read-out: Inhibition at 10µM (%), CDK8/C
CDK9/Cyclin K = CDK9/Cyclin K (Homo sapiens, UniProt P50750); test: NanoBRET live-cell target engagement, NanoLuc-CDK9/Cyclin K in HEK-293; assay type: binding; details: CDK9/K, read-out: Inhibition at 10µM (%)
CDK11B/Cyclin L2 = CDK11B/Cyclin L2 (Homo sapiens, UniProt P21127); test: NanoBRET live-cell target engagement, CDK11B-NanoLuc/Cyclin L2 in HEK-293; assay type: binding; details: CDK11b/L2, read-out: Inhibition at 10µM (%)
CDK12/Cyclin K = CDK12/Cyclin K (Homo sapiens, UniProt Q9NYV4); test: NanoBRET live-cell target engagement, CDK12-NanoLuc/Cyclin K in HEK-293; assay type: binding; details: CDK12/K, read-out: Inhibition at 10µM (%)
CDK13/Cyclin K = CDK13/Cyclin K (Homo sapiens, UniProt Q14004); test: NanoBRET live-cell target engagement, CDK13-NanoLuc/Cyclin K in HEK-293; assay type: binding; details: CDK13/K, read-out: Inhibition at 10µM (%)
CDK14/Cyclin Y = CDK14/Cyclin Y (Homo sapiens, UniProt O94921); test: NanoBRET live-cell target engagement, CDK14-NanoLuc/Cyclin Y in HEK-293; assay type: binding; details: CDK14/Y, read-out: Inhibition at 10µM (%)
CDK15/Cyclin Y = CDK15/Cyclin Y (Homo sapiens, UniProt Q96Q40); test: NanoBRET live-cell target engagement, NanoLuc-CDK15/Cyclin Y in HEK-293; assay type: binding; details: CDK15/Y, read-out: Inhibition at 10µM (%)
CDK16/Cyclin Y = CDK16/Cyclin Y (Homo sapiens, UniProt Q00536); test: NanoBRET live-cell target engagement, CDK16-NanoLuc/Cyclin Y in HEK-293; assay type: binding; details: CDK16/Y, read-out: Inhibition at 10µM (%)
CDK17/Cyclin Y = CDK17/Cyclin Y (Homo sapiens, UniProt Q00537); test: NanoBRET live-cell target engagement, CDK17-NanoLuc/Cyclin Y in HEK-293; assay type: binding; details: CDK17/Y, read-out: Inhibition at 10µM (%)
CDK18/Cyclin Y = CDK18/Cyclin Y (Homo sapiens, UniProt Q07002); test: NanoBRET live-cell target engagement, CDK18-NanoLuc/Cyclin Y in HEK-293; assay type: binding; details: CDK18/Y, read-out: Inhibition at 10µM (%)
CDK20/Cyclin H = CDK20/Cyclin H (Homo sapiens, UniProt Q8IZL9); test: NanoBRET live-cell target engagement, NanoLuc-CDK20/Cyclin H in HEK-293; assay type: binding; details: CDK20/H, read-out: Inhibition at 10µM (%)
CDK19/Cyclin C = CDK19/Cyclin C (Homo sapiens, UniProt Q9BWU1); test: NanoBRET live-cell target engagement, NanoLuc-CDK19/Cyclin C in HEK-293; details: for IC50: IC50 (nM), CDK19/C; for inhibition at 10 µM: read-out: Inhibition at 10µM (%), CDK19/C
CDK10/Cyclin L2 = CDK10/Cyclin L2 (Homo sapiens, UniProt Q15131); test: NanoBRET live-cell target engagement, CDK10-NanoLuc/Cyclin L2 in HEK-293; details: read-out: Inhibition at 10µM (%), CDK10/L2

Chain of CDK18/Cyclin Y (Q07002 whole entry): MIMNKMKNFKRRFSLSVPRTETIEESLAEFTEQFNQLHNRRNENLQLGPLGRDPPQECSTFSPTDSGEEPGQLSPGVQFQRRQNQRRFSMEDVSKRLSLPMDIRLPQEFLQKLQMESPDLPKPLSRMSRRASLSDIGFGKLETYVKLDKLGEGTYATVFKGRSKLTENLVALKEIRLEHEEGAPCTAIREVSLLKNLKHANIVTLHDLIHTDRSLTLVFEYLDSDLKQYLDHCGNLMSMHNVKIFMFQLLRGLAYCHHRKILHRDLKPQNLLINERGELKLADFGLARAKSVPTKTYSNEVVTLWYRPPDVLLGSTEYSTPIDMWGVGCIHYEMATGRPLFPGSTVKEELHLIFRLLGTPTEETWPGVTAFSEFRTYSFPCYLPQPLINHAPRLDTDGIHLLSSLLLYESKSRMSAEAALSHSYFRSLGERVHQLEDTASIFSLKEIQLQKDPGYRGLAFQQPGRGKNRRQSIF
Chain of CDK18/Cyclin Y (Q8ND76 whole entry partner): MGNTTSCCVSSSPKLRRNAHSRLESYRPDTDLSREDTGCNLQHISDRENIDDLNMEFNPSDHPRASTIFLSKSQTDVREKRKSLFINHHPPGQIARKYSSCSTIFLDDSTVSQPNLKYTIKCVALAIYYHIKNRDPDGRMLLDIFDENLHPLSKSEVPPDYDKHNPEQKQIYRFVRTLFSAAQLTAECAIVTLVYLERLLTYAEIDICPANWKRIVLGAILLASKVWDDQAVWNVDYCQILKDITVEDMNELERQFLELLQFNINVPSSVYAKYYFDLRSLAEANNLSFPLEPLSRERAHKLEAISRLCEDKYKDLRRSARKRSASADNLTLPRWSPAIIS
Chain of CDK12/Cyclin K (Q9NYV4 1-1481 isoform Q9NYV4-2): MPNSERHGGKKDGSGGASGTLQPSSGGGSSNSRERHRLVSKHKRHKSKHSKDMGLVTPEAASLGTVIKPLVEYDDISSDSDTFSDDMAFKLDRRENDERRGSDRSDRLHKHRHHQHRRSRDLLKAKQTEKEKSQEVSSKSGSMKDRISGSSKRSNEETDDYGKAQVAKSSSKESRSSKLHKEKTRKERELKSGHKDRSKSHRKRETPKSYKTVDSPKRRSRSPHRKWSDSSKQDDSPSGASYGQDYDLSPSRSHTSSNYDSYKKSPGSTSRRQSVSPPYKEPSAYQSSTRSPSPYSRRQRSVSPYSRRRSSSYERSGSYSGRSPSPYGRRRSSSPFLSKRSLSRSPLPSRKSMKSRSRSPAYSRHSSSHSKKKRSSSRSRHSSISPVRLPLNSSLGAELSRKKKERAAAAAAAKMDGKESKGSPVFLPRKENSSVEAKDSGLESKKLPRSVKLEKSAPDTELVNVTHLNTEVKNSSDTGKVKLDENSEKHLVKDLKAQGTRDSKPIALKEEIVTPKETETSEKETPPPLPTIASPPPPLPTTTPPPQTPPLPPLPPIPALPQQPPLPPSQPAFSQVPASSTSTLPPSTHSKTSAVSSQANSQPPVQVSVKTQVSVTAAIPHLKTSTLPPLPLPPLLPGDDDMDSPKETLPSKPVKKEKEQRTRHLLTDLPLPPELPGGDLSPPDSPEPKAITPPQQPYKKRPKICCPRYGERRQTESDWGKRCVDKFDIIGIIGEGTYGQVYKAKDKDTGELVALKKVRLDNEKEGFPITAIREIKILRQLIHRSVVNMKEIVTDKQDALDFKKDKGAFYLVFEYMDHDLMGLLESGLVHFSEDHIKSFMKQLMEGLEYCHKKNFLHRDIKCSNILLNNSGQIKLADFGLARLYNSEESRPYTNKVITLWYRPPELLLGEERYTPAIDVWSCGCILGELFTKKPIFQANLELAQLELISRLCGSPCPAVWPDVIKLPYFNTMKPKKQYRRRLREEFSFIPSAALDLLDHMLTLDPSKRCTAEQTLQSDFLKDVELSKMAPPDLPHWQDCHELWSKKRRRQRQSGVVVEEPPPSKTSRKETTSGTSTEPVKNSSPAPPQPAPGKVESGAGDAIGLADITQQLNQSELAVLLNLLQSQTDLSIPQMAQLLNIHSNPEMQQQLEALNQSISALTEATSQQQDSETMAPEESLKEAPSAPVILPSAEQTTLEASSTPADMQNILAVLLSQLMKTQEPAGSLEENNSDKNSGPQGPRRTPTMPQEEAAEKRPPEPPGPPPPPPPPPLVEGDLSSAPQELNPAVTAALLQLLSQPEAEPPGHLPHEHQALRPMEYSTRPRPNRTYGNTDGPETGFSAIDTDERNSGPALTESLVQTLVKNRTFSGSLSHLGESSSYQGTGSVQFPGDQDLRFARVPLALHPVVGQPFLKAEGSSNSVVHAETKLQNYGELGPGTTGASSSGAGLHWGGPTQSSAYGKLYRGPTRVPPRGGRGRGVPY
Chain of CDK12/Cyclin K (O75909 whole entry partner): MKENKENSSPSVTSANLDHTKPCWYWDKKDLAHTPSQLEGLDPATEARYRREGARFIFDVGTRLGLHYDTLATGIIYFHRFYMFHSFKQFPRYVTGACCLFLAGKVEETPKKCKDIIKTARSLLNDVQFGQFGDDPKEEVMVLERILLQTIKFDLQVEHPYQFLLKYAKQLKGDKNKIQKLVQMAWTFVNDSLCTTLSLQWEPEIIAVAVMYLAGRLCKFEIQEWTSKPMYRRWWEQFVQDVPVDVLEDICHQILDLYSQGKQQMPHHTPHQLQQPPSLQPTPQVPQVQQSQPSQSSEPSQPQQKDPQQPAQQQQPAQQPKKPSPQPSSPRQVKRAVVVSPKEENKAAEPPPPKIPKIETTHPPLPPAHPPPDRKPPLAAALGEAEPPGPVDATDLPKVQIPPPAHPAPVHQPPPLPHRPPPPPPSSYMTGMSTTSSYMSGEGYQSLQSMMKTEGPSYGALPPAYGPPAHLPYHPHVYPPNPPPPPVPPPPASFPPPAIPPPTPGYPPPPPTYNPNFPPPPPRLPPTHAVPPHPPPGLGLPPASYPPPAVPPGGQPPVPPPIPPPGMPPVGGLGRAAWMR
Chain of CDK11B/Cyclin L2 (P21127 1-782 isoform P21127-2): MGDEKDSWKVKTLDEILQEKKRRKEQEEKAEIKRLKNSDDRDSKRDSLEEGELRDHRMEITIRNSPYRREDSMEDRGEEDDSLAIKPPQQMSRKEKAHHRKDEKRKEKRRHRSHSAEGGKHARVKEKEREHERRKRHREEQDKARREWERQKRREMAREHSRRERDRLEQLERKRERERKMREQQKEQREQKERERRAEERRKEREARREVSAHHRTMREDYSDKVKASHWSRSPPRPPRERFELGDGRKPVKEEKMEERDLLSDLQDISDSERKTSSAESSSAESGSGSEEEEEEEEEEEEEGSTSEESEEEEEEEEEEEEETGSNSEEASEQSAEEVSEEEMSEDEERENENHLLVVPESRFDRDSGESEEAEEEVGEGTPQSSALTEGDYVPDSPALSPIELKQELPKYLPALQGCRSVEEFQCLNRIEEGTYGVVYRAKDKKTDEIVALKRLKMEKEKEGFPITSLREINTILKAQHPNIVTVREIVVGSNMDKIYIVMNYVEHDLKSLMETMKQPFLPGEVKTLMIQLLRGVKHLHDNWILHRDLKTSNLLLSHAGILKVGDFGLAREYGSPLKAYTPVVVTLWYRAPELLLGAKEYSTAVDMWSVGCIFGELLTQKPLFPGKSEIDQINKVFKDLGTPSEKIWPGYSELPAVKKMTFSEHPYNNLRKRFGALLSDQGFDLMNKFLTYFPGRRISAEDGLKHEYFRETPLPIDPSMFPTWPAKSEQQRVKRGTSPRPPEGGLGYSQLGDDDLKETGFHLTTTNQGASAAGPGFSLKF
Chain of CDK14/Cyclin Y (O94921 whole entry): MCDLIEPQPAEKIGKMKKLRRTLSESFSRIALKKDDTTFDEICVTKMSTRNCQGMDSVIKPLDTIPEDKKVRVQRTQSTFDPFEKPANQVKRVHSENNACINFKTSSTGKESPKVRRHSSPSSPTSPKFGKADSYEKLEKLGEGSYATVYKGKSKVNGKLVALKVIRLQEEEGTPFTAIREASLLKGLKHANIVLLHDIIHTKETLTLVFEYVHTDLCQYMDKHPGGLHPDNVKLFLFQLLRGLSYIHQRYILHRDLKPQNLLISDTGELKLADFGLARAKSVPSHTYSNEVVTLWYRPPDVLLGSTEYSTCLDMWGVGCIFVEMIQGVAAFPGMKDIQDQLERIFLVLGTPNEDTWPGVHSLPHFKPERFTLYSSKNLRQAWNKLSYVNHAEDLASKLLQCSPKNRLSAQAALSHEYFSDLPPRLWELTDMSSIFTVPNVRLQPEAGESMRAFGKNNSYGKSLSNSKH
Chain of CDK14/Cyclin Y (Q8ND76 whole entry partner): as the sequence (Q8ND76 whole entry partner) above
Chain of CDK17/Cyclin Y (Q00537 whole entry): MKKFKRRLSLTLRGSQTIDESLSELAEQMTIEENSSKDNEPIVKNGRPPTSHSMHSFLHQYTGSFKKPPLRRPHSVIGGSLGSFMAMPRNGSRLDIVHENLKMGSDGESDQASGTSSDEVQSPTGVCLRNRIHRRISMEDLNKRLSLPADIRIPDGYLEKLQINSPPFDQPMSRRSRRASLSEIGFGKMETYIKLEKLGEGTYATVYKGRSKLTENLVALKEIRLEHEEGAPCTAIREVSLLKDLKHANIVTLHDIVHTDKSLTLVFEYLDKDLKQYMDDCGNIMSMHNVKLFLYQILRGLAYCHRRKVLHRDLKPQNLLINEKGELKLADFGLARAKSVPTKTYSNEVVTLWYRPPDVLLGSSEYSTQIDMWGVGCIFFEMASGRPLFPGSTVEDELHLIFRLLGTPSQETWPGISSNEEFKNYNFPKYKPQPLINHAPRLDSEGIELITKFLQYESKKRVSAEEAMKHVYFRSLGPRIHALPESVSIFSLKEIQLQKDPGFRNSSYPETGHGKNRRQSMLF
Chain of CDK17/Cyclin Y (Q8ND76 whole entry partner): as the sequence (Q8ND76 whole entry partner) above

## Cn1cc(-c2ccc(-c3cncc(Cl)c3N3CCC4(CCNC4=O)CC3)cc2)cn1 [CCT251545]
CDK1/Cyclin E1; average
  inhibition at 10 µM: 15.4%
CDK1/Cyclin E1; experiment 1
  inhibition at 10 µM: 21.3%
CDK1/Cyclin E1; experiment 2
  inhibition at 10 µM: 9.4%
CDK2/Cyclin E1; average
  inhibition at 10 µM: -6.3%
CDK2/Cyclin E1; experiment 1
  inhibition at 10 µM: -6.4%
CDK2/Cyclin E1; experiment 2
  inhibition at 10 µM: -6.1%
CDK3/Cyclin E1; average
  inhibition at 10 µM: -2.7%
CDK3/Cyclin E1; experiment 1
  inhibition at 10 µM: -4.5%
CDK3/Cyclin E1; experiment 2
  inhibition at 10 µM: -1%
CDK4/Cyclin D1; average
  inhibition at 10 µM: 6.9%
CDK4/Cyclin D1; experiment 1
  inhibition at 10 µM: -6.1%
CDK4/Cyclin D1; experiment 2
  inhibition at 10 µM: 19.9%
CDK5/CDK5R1; average
  inhibition at 10 µM: 16.2%
CDK5/CDK5R1; experiment 1
  inhibition at 10 µM: 23.2%
CDK5/CDK5R1; experiment 2
  inhibition at 10 µM: 9.2%
CDK6/Cyclin D1; average
  inhibition at 10 µM: -5%
CDK6/Cyclin D1; experiment 1
  inhibition at 10 µM: -11.6%
CDK6/Cyclin D1; experiment 2
  inhibition at 10 µM: 1.5%
CDK7; average
  inhibition at 10 µM: -8.2%
CDK7; experiment 1
  inhibition at 10 µM: -5.4%
CDK7; experiment 2
  inhibition at 10 µM: -11.1%
CDK8/Cyclin C
  Kd: ≤ 10 nM
CDK8/Cyclin C; IC50 (nM), experiment 1
  IC50: 2 nM
CDK8/Cyclin C; IC50 (nM), experiment 2
  IC50: 2 nM
CDK8/Cyclin C; IC50 (nM), experiment 3
  IC50: 9 nM
CDK8/Cyclin C; IC50 for CDK/cyclin complexes, live HEK-293, 2 h, mean ± S.E.M. (n=3) or mean (n=2)
  IC50: 6 nM
CDK8/Cyclin C; average
  inhibition at 10 µM: 97.8%
CDK8/Cyclin C; experiment 1
  inhibition at 10 µM: 98.8%
CDK8/Cyclin C; experiment 2
  inhibition at 10 µM: 96.9%
CDK9/Cyclin K; average
  inhibition at 10 µM: 15.8%
CDK9/Cyclin K; experiment 1
  inhibition at 10 µM: 9.2%
CDK9/Cyclin K; experiment 2
  inhibition at 10 µM: 22.5%
CDK11B/Cyclin L2; average
  inhibition at 10 µM: -1%
CDK11B/Cyclin L2; experiment 1
  inhibition at 10 µM: -3.6%
CDK11B/Cyclin L2; experiment 2
  inhibition at 10 µM: 1.7%
CDK12/Cyclin K; average
  inhibition at 10 µM: -2.2%
CDK12/Cyclin K; experiment 1
  inhibition at 10 µM: 2.5%
CDK12/Cyclin K; experiment 2
  inhibition at 10 µM: -6.8%
CDK13/Cyclin K; average
  inhibition at 10 µM: 7.2%
CDK13/Cyclin K; experiment 1
  inhibition at 10 µM: 7.3%
CDK13/Cyclin K; experiment 2
  inhibition at 10 µM: 7.1%
CDK14/Cyclin Y; average
  inhibition at 10 µM: -6%
CDK14/Cyclin Y; experiment 1
  inhibition at 10 µM: -5.6%
CDK14/Cyclin Y; experiment 2
  inhibition at 10 µM: -6.4%
CDK15/Cyclin Y; average
  inhibition at 10 µM: 1.4%
CDK15/Cyclin Y; experiment 1
  inhibition at 10 µM: 2.4%
CDK15/Cyclin Y; experiment 2
  inhibition at 10 µM: 0.46%
CDK16/Cyclin Y; experiment 1
  inhibition at 10 µM: 1.8%
CDK16/Cyclin Y; experiment 2
  inhibition at 10 µM: -12.1%
CDK17/Cyclin Y; average
  inhibition at 10 µM: 1.3%
CDK17/Cyclin Y; experiment 1
  inhibition at 10 µM: 5.9%
CDK17/Cyclin Y; experiment 2
  inhibition at 10 µM: -3.2%
CDK18/Cyclin Y; average
  inhibition at 10 µM: 10.8%
CDK18/Cyclin Y; experiment 1
  inhibition at 10 µM: 2.3%
CDK18/Cyclin Y; experiment 2
  inhibition at 10 µM: 19.2%
CDK20/Cyclin H; experiment 1
  inhibition at 10 µM: 3.3%
CDK20/Cyclin H; experiment 2
  inhibition at 10 µM: 5.3%
CDK19/Cyclin C
  Kd: ≤ 10 nM
CDK19/Cyclin C; experiment 2
  IC50: 1.5 nM
  inhibition at 10 µM: 90.6%
CDK19/Cyclin C; experiment 3
  IC50: 10 nM
CDK19/Cyclin C; average
  inhibition at 10 µM: 94%
CDK19/Cyclin C; experiment 1
  inhibition at 10 µM: 97.3%
CDK10/Cyclin L2; average
  inhibition at 10 µM: 6.5%
CDK10/Cyclin L2; experiment 1
  inhibition at 10 µM: -3.1%
CDK10/Cyclin L2; experiment 2
  inhibition at 10 µM: 16.1%
